Assay results published in US9133158B2, “Bicyclic dihydroisoquinoline-1-one derivatives” (Hoffmann-La Roche Inc., priority 2011, dated 2015).

Assays:
[1] = rat; FAD286 after 4 weeks, spironolactone at 4 and 8 weeks of treatment; cited from earlier work
[2] = molecular target: CYP11B2 (Homo sapiens, UniProt P19099); conditions: patients with primary aldosteronism, oral; cited from earlier work
[3] = molecular target: T1, human CYP11B2 (Homo sapiens, UniProt P19099); assay: G-402 cellular enzyme assay, human CYP11B2 (aldosterone release, HTRF); type: cell-based; conditions: G-402 cells, 1 μM Deoxycorticosterone
T1 construct: expressed in transfected cells
T1 sequence (P19099 25-503): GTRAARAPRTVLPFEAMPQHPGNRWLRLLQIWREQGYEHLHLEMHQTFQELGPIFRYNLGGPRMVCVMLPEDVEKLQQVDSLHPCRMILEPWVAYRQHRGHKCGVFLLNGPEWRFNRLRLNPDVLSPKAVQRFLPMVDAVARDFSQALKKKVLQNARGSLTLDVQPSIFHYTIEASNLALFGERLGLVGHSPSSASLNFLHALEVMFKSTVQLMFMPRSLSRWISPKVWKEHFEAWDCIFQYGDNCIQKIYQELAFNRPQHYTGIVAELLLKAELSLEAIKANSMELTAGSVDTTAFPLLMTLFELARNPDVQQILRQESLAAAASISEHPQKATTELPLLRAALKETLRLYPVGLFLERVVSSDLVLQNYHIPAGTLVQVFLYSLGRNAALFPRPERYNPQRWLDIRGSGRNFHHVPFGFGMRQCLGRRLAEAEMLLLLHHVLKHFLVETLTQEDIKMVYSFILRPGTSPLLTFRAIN
Method in brief: (§1)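 Steroid output from supernatants, quantified by HTRF as cortisol for CYP11B1 or aldosterone for CYP11B2, gave EC50 values by least-squares 4-parameter MMF fitting against inhibitor concentration. Stably transfected G-402 cells carrying the human enzyme received 1 μM deoxycortisol or 1 μM deoxycorticosterone respectively, 16 h, DMEM/F12 with 2.5% charcoal-stripped FCS.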

[4] = molecular target: T2, human CYP11B1 (Homo sapiens, UniProt P15538); assay: G-402 cellular enzyme assay, human CYP11B1 (cortisol release, HTRF); type: cell-based; conditions: G-402 cells, 1 μM Deoxycortisol
T2 construct: expressed in transfected cells
T2 sequence (P15538 25-503): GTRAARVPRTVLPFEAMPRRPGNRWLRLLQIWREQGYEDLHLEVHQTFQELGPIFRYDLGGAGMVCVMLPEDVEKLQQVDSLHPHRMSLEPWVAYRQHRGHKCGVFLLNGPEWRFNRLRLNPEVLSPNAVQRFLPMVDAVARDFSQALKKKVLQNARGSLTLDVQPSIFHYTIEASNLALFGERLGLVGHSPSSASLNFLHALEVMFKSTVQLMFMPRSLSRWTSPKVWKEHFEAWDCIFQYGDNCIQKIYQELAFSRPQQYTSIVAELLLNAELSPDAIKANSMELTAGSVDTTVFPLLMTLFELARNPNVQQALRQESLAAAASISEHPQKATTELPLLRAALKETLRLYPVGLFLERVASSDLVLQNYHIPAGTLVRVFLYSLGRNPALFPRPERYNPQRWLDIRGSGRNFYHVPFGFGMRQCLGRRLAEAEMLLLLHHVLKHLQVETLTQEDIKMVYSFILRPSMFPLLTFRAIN
Method in brief: as §1

Row | SMILES | plasma aldosterone [1] | circulating aldosterone levels [2] | EC50 [3] [nM] | EC50 [4] [nM]
1 | N#Cc1ccc([C@H]2CCCc3cncn32)cc1 [FAD286] | reduced |  |  | 
2 | CC(=O)S[C@@H]1CC2=CC(=O)CC[C@]2(C)[C@H]2CC[C@@]3(C)[C@@H](CC[C@@]34CCC(=O)O4)[C@H]12 [spironolactone] | increased |  |  | 
3 | N#Cc1ccc([C@H]2CCc3cncn32)c(F)c1 [LCI699] |  | significantly lower |  | 
4 | CC1(C)c2cc(Cl)ccc2C(=O)N1c1cncc(C2CCCN(S(C)(=O)=O)C2)n1 (centres unmarked) [Example 465, 5-Chloro-2-[6-(1-methanesulfonyl-piperidin-3-yl)-pyrazin-2-yl]-3,3-dimethyl-2,3-dihydro-isoindol-1-one] |  |  | 66.9 | 2270
5 | O=C1c2ccc(Cl)cc2CCN1c1cncc(CNc2ccccc2)c1 [Example 257, 6-Chloro-2-(5-phenylaminomethyl-pyridin-3-yl)-3,4-dihydro-2H-isoquinolin-1-one] |  |  | 11.3 | 95.4
6 | CCC(=O)N[C@H]1CCCc2c1cncc2N1C(=O)c2ccc(Cl)cc2[C@H]1CC (single isomer, unassigned) [Example 352, N-[(S or R)-4-((R or S)-5-Chloro-3-ethyl-1-oxo-1,3-dihydro-isoindol-2-yl)-5,6,7,8-tetrahydro-isoquinolin-8-yl]-propionamide] |  |  | 96.5 | 39400
7 | CNC(=O)COc1cncc(N2CCc3cc(Cl)ccc3C2=O)c1 [Example 254, 2-[5-(6-Chloro-1-oxo-3,4-dihydro-1H-isoquinolin-2-yl)-pyridin-3-yloxy]-N-methyl-acetamide] |  |  | 2130 | 32500
8 | CS(=O)(=O)NC1CCc2c1cncc2N1Cc2cc(Cl)ccc2C1=O (single isomer, unassigned) [Example 334, N-[(R or S)-4-(5-Chloro-1-oxo-1,3-dihydro-isoindol-2-yl)-6,7-dihydro-5H-[2]pyrindin-7-yl]-methanesulfonamide] |  |  | 383 | 34600
9 | CCOC(=O)c1nccn1Cc1cncc(N2CCc3cc(Cl)ccc3C2=O)c1 [Example 162, 1-[5-(6-Chloro-1-oxo-3,4-dihydro-1H-isoquinolin-2-yl)-pyridin-3-ylmethyl]-1H-imidazole-2-carboxylic acid ethyl ester] |  |  | 187 | 2000
10 | CCC(=O)N[C@@H]1CCCc2c1cncc2N1C(=O)c2ccc(Cl)cc2[C@@H]1CC (single isomer, unassigned) [Example 353, N-[(R or S)-4-((S or R)-5-Chloro-3-ethyl-1-oxo-1,3-dihydro-isoindol-2-yl)-5,6,7,8-tetrahydro-isoquinolin-8-yl]-propionamide] |  |  | 396 | 16200
11 | Cn1cc(Cc2cncc(N3C(=O)c4ccc(Cl)cc4C3(C)C)c2)cn1 [Example 281, 5-Chloro-3,3-dimethyl-2-[5-(1-methyl-1H-pyrazol-4-ylmethyl)-pyridin-3-yl]-2,3-dihydro-isoindol-1-one] |  |  | 0.4 | 3
12 | O=C1c2ccc(Cl)cc2CN1c1cncc(Cn2cncn2)c1 [Example 110, 5-Chloro-2-(5-[1,2,4]triazol-1-ylmethyl-pyridin-3-yl)-2,3-dihydro-isoindol-1-one] |  |  | 184 | 1280
13 | CCC1c2cc(Cl)ccc2C(=O)N1c1cnccc1Cl (centres unmarked) [Example 284, 5-Chloro-2-(4-chloro-pyridin-3-yl)-3-ethyl-2,3-dihydro-isoindol-1-one] |  |  | 20.5 | 249
14 | CCC(=O)NC1CCc2c1cncc2N1Cc2cc(Cl)ccc2C1=O (single isomer, unassigned) [Example 339, N-[(R or S)-4-(5-Chloro-1-oxo-1,3-dihydro-isoindol-2-yl)-6,7-dihydro-5H-[2]pyrindin-7-yl]-propionamide] |  |  | 54.5 | 7990
15 | O=C1c2ccc(Cl)cc2CCN1c1cncc(OC(F)F)c1 [Example 60, 6-Chloro-2-(5-difluoromethoxy-pyridin-3-yl)-3,4-dihydro-2H-isoquinolin-1-one] |  |  | 70.7 | 794
16 | O=C(Cc1cncc(N2CCc3cc(Cl)ccc3C2=O)c1)NCCO [Example 264, 2-[5-(6-Chloro-1-oxo-3,4-dihydro-4H-isoquinolin-2-yl)-pyridin-3-yl]-N-(2-hydroxy-ethyl)-acetamide] |  |  | 843 | 4190
17 | C[C@H](O)c1cncc(N2CCc3cc(Cl)ccc3C2=O)c1 [Example 15, 6-Chloro-2-[5-((S)-1-hydroxy-ethyl)-pyridin-3-yl]-3,4-dihydro-2H-isoquinolin-1-one] |  |  | 68.2 | 913
18 | CC[C@@H]1c2cc(Cl)ccc2C(=O)N1c1cncc2c1CCC[C@@H]2NC(C)=O (single isomer, unassigned) [Example 355, N-[(S or R)-4-((R or S)-5-Chloro-3-ethyl-1-oxo-1,3-dihydro-isoindol-2-yl)-5,6,7,8-tetrahydro-isoquinolin-8-yl]-acetamide] |  |  | 15.3 | 8170
19 | CCC(=O)N[C@@H]1CCCc2c1cncc2N1C(=O)c2ccc(Cl)cc2[C@H]1CC (single isomer, unassigned) [Example 354, N-[(R or S)-4-((R or S)-5-Chloro-3-ethyl-1-oxo-1,3-dihydro-isoindol-2-yl)-5,6,7,8-tetrahydro-isoquinolin-8-yl]-propionamide] |  |  | 12.2 | 345
20 | O=C1c2ccc(Cl)cc2CCN1c1cnccc1CO [Example 56, 6-Chloro-2-(4-hydroxymethyl-pyridin-3-yl)-3,4-dihydro-2H-isoquinolin-1-one; compound with trifluoro-acctic acid] |  |  | 297 | 13800
21 | CS(=O)(=O)NCc1cncc(N2C(=O)c3ccc(F)cc3C23CC3)c1 [Example 404, N-{[5-(6′-Fluoro-3′-oxospiro [cyclopropane-1,1′-isoindol]-2′(3′H)-yl)pyridin-3-yl]methyl} methane-sulfonamide] |  |  | 298 | 5480
22 | O=C1c2ccc(Cl)cc2CCN1c1cncc(C(O)c2ccc(F)c(F)c2)c1 (centres unmarked) [Example 31, 6-Chloro-2-{5-[(3,4-difluoro-phenyl)-hydroxy-methyl]-pyridin-3-yl}-3,4-dihydro-2H-isoquinolin-1-one] |  |  | 50.2 | 328
